Reference: patent US9573899B2, “USP7 inhibitor compounds and methods of use” (Genentech, Inc., priority 2015, dated 2017)

target: T1, USP7, full-length, native C-Terminus (Homo sapiens, UniProt Q93009); assay: Biochemical USP7 assay with Ubiquitin-Rho110 substrate, compounds pre-incubated with USP7 (USP7_Ub-Rho preInc); conditions: compounds pre-mixed with USP7, 1 hour incubation, before substrate; read-out: USP7 Ub-Rho preInc (IC50)
T1 construct: USP7, full-length, native C-Terminus, 0.2 nM
Method: Biochemical USP7 assays using Ubiquitin-Rho110 as a substrate: The final assay conditions were as follows: The Reaction Buffer consisted of: 50 mM Tris (pH 7.5), 0.01% (v/v) Triton X-100, 2.5 mM Dithiothreitol, 0.1% (w/v) bovine gamma globulin (Sigma cat #G5009-25G); USP7, full-length, native C-Terminus, 0.2 nM; the substrate, Ubiquitin-Rho110 (Boston Biochem cat #U-555), 1 uM. Reactions were carried out for 1 hour at room temperature, in black 20 μL volume polystyrene ProxiPlate 384 F Plus® (PerkinElmer cat #6008260).
Test compounds, including a control USP7 inhibitor (Ub-aldehyde, Boston Biochem cat #U-201) were serially diluted in DMSO, in 384 well clear V-bottom polypropylene plates (Greiner cat #781280). Compounds in DMSO were diluted 10-fold into Reaction Buffer, to achieve 3-fold the final desired concentration. The substrate, Ubiquitin-Rho110 (Boston Biochem cat #U-555), was prepared at 3 μM (3-fold the final concentration) and 5 ul was dispensed into the reaction plate. 5 ul of the compounds (diluted in Reaction Buffer at 3-fold the final concentration) were transferred to the reaction plate. 5 ul of 0.6 nM USP7 (diluted in Reaction Buffer at 3-fold the final concentration) was transferred to the reaction plate to initiate the reaction. After 1 hour incubation at room temperature the reaction was quenched by the addition of 5 ul of 400 mM acetic acid. The enzymatic product was measured by quantifying the fluorescence signal of cleaved Rhodamine-110 using excitation at 485 nm and emission at 535 nm. When pre-incubation of USP7 with compounds was required, the order of addition of reagents was modified to pre-mix the compounds with USP7 (with a 1 hour incubation period), prior to the addition of the substrate and the initiation of the reaction period. Percentage inhibition values were calculated relative to a no enzyme control and a uninhibited enzyme control. Curve fitting and IC50 calculations were carried out using Genedata Screener software.

T1 sequence (Q93009 whole entry): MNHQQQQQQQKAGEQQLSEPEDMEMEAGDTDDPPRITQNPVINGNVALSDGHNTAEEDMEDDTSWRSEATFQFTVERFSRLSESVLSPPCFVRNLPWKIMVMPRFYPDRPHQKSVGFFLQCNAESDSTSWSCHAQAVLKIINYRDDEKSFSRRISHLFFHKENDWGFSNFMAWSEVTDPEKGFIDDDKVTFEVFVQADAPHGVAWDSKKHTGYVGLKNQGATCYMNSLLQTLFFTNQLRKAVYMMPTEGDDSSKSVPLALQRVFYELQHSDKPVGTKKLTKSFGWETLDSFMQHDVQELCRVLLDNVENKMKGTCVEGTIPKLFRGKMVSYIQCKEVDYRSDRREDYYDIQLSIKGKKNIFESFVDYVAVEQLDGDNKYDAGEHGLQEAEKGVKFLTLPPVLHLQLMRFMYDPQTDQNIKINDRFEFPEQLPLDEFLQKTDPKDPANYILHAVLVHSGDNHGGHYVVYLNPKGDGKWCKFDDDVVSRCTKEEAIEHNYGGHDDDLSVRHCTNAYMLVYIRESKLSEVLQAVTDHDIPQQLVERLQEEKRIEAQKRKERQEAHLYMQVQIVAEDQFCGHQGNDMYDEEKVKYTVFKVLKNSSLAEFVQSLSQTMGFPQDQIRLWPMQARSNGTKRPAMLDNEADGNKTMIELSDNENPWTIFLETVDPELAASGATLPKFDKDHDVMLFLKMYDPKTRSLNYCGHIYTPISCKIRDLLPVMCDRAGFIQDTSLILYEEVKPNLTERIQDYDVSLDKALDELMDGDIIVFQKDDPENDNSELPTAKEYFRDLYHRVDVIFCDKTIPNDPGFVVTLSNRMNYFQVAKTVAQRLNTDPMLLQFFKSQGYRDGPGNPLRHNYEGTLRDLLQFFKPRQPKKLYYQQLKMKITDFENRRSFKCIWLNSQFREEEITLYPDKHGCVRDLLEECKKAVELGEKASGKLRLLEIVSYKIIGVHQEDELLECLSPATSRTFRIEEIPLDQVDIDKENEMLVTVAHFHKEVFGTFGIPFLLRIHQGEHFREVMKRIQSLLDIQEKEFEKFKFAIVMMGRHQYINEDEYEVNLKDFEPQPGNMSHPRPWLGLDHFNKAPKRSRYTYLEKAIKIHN

`CCc1c(-c2cccc(NC(C)=O)c2)cnc(N)c1-c1ccc2cn[nH]c2c1` [Compound 14, N-[3-[6-amino-4-ethyl-5-(1H-indazol-6-yl)-3-pyridyl]phenyl]acetamide] and `CCc1c(-c2ccc(O)cc2)cnc(N)c1-c1cccc(NC(=O)OC(C)(C)C)c1` [Compound 31, tert-butyl N-[3-[2-amino-4-ethyl-5-(4-hydroxyphenyl)-3-pyridyl]phenyl]carbamate] cannot be ordered by IC50: 136 µM for the first, over 20 µM for the second.

`CCCNc1ncc(-c2ccc(O)cc2)c(CC)c1-c1ccc(O)cc1` [Compound 15, 4-[4-ethyl-5-(4-hydroxyphenyl)-6-(propylamino)-3-pyridyl]phenol] and `CCc1c(-c2ccc(O)cc2)cnc(NC)c1-c1ccc(O)cc1` [Compound 43, 4-[4-ethyl-5-(4-hydroxyphenyl)-6-(methylamino)-3-pyridyl]phenol] are within 1.5-fold of each other in IC50: 10.1 µM for the first, 6.8 µM for the second.

First: CCc1c(-c2ccc(O)cc2)cnc(N)c1-c1ccccc1 [Compound 16, 4-(6-amino-4-ethyl-5-phenyl-3-pyridyl)phenol]
Second: CCc1c(-c2ccccc2)cnc(N)c1-c1ccc(O)cc1 [Compound 37, 4-(2-amino-4-ethyl-5-phenyl-3-pyridyl)phenol]
The IC50 of the first is 3.4-fold higher: 60.7 µM for the first, 17.8 µM for the second. The second is the more potent here.

Compared with `CCc1c(-c2ccc(O)cc2)cnc(N)c1-c1ccc(F)c(F)c1` [Compound 18, 4-[6-amino-5-(3,4-difluorophenyl)-4-ethyl-3-pyridyl]phenol], `CCc1c(-c2ccc(F)c(F)c2)cnc(N)c1-c1ccc(O)cc1` [Compound 48, 4-[2-amino-5-(3,4-difluorophenyl)-4-ethyl-3-pyridyl]phenol] is lower in IC50: over 20 µM for the first, 11.6 µM for the second. The second is the more potent here.

First: CCc1c(-c2ccc(O)cc2)cnc(N)c1-c1cccc(C#N)c1 [Compound 19, 3-[2-amino-4-ethyl-5-(4-hydroxyphenyl)-3-pyridyl]benzonitrile]
Second: CCc1c(-c2cccc(C#N)c2)cnc(N)c1-c1ccc(O)cc1 [Compound 49, 3-[6-amino-4-ethyl-5-(4-hydroxyphenyl)-3-pyridyl]benzonitrile]
The IC50 of the first is 1.8-fold higher: 9.9 µM for the first, 5.4 µM for the second. The second is the more potent here.

`CCc1c(-c2ccc(O)cc2)cnc(N)c1-c1ccc(NC(=O)OC(C)(C)C)cc1` [Compound 21, tert-butyl N-[4-[2-amino-4-ethyl-5-(4-hydroxyphenyl)-3-pyridyl]phenyl]carbamate] and `CCc1c(-c2ccc(O)cc2)cnc(N)c1-c1ccc(N(C)C(=O)OC(C)(C)C)cc1` [Compound 28, tert-butyl N-[4-[2-amino-4-ethyl-5-(4-hydroxyphenyl)-3-pyridyl]phenyl]-N-methyl-carbamate] cannot be ordered by IC50: over 20 µM for the first, over 20 µM for the second.

`CCc1c(-c2ccc(O)cc2)cnc(N)c1-c1cccc(N2CCOCC2)c1` [Compound 22, 4-[6-amino-4-ethyl-5-(3-morpholinophenyl)-3-pyridyl]phenol] and `CCc1c(-c2ccc(O)cc2)cnc(N)c1-c1cccc(CN2CCOCC2)c1` [Compound 26, 4-[6-amino-4-ethyl-5-[3-(morpholinomethyl)phenyl]-3-pyridyl]phenol] cannot be ordered by IC50: over 63.3 µM for the first, 145 µM for the second.

`CCc1c(-c2ccc(O)cc2)cnc(N)c1-c1cccc(CNC(=O)OC(C)(C)C)c1` [Compound 23, tert-butyl N-[[3-[2-amino-4-ethyl-5-(4-hydroxyphenyl)-3-pyridyl]phenyl]methyl]carbamate] and `CCc1c(-c2ccc(O)cc2)cnc(N)c1-c1cccc(COC)c1` [Compound 24, 4-[6-amino-4-ethyl-5-[3-(methoxymethyl)phenyl]-3-pyridyl]phenol] cannot be ordered by IC50: over 6.3 µM for the first, over 63.3 µM for the second.

`CCc1c(-c2ccc(O)cc2)cnc(N)c1-c1cccc(CC#N)c1` [Compound 27, 2-[3-[2-amino-4-ethyl-5-(4-hydroxyphenyl)-3-pyridyl]phenyl]acetonitrile] and `CCc1c(-c2cccc(C)c2)cnc(N)c1-c1ccc(O)cc1` [Compound 57, 4-[2-amino-4-ethyl-5-(m-tolyl)-3-pyridyl]phenol] cannot be ordered by IC50: 48.7 µM for the first, over 20 µM for the second.

Compared with `CCc1c(-c2ccc(O)cc2)cnc(N)c1-c1cncc(C#N)c1` [Compound 29, 5-[2-amino-4-ethyl-5-(4-hydroxyphenyl)-3-pyridyl]pyridine-3-carbonitrile], `CCc1c(-c2ccc(C#N)cc2)cnc(N)c1-c1ccc(O)cc1` [Compound 51, 4-[6-amino-4-ethyl-5-(4-hydroxyphenyl)-3-pyridyl]benzonitrile] is 2.4-fold higher in IC50: 18.6 µM for the first, 44.2 µM for the second. The first is the more potent here.

First: CCc1c(-c2ccc(O)cc2)cnc(N)c1-c1ccc(NS(C)(=O)=O)cc1 [Compound 30, N-[4-[2-amino-4-ethyl-5-(4-hydroxyphenyl)-3-pyridyl]phenyl]methanesulfonamide]
Second: CCc1c(-c2ccc(O)cc2)cnc(N)c1-c1cccc(NS(C)(=O)=O)c1 [Compound 41, N-[3-[2-amino-4-ethyl-5-(4-hydroxyphenyl)-3-pyridyl]phenyl]methanesulfonamide]
The IC50 of the first is 6-fold lower: 19.6 µM for the first, 118 µM for the second. The first is the more potent here.

Compared with `CCc1c(-c2cncnc2)cnc(N)c1-c1ccc(O)cc1` [Compound 32, 4-(2-amino-4-ethyl-5-pyrimidin-5-yl-3-pyridyl)phenol], `CCc1c(-c2cccnc2)cnc(N)c1-c1ccc(O)cc1` [Compound 39, 4-[2-amino-4-ethyl-5-(3-pyridyl)-3-pyridyl]phenol] is 1.7-fold lower in IC50: 69.9 µM for the first, 41 µM for the second. The second is the more potent here.

First: CCc1c(-c2ccccc2C)cnc(N)c1-c1ccc(O)cc1 [Compound 33, 4-[2-amino-4-ethyl-5-(o-tolyl)-3-pyridyl]phenol]
Second: CCc1c(-c2ccccc2F)cnc(N)c1-c1ccc(O)cc1 [Compound 50, 4-[2-amino-4-ethyl-5-(2-fluorophenyl)-3-pyridyl]phenol]
The IC50 of the first is higher: over 63.3 µM for the first, 14.2 µM for the second.

`CCc1c(-c2ccc(F)cc2)cnc(N)c1-c1ccc(O)cc1` [Compound 34, 4-[2-amino-4-ethyl-5-(4-fluorophenyl)-3-pyridyl]phenol] and `CCc1c(-c2ccc(C)cc2)cnc(N)c1-c1ccc(O)cc1` [Compound 36, 4-[2-amino-4-ethyl-5-(p-tolyl)-3-pyridyl]phenol] are within 1.5-fold of each other in IC50: 19.9 µM for the first, 18.1 µM for the second.

`CCc1c(-c2ccc(C)nc2)cnc(N)c1-c1ccc(O)cc1` [Compound 35, 4-[2-amino-4-ethyl-5-(6-methyl-3-pyridyl)-3-pyridyl]phenol] and `CCc1c(-c2ccc(Cl)c(C)c2)cnc(N)c1-c1ccc(O)cc1` [Compound 44, 4-[2-amino-5-(4-chloro-3-methyl-phenyl)-4-ethyl-3-pyridyl]phenol] cannot be ordered by IC50: 31.2 µM for the first, over 20 µM for the second.

`CCc1c(-c2ccncc2)cnc(N)c1-c1ccc(O)cc1` [Compound 38, 4-[2-amino-4-ethyl-5-(4-pyridyl)-3-pyridyl]phenol] and `CCc1c(-c2ccc(OC)cc2)cnc(N)c1-c1ccc(O)cc1` [Compound 53, 4-[2-amino-4-ethyl-5-(4-methoxyphenyl)-3-pyridyl]phenol] cannot be ordered by IC50: 52.4 µM for the first, over 20 µM for the second.

Going from `CCc1c(-c2ccc(O)cc2)cnc(NCC2CC2)c1-c1ccc(O)cc1` [Compound 40, 4-[6-(cyclopropylmethylamino)-4-ethyl-5-(4-hydroxyphenyl)-3-pyridyl]phenol] to `CCc1c(-c2ccc(CO)cc2)cnc(N)c1-c1ccc(O)cc1` [Compound 55, 4-[2-amino-4-ethyl-5-[4-(hydroxymethyl)phenyl]-3-pyridyl]phenol], the IC50 rises from 19.9 µM to over 20 µM. The first is the more potent here.

Compared with `CCc1c(-c2cccc(N3CCNCC3)c2)cnc(N)c1-c1ccc(O)cc1` [Compound 42, 4-[2-amino-4-ethyl-5-(3-piperazin-1-ylphenyl)-3-pyridyl]phenol], `CCc1c(-c2cccc(OC)c2)cnc(N)c1-c1ccc(O)cc1` [Compound 52, 4-[2-amino-4-ethyl-5-(3-methoxyphenyl)-3-pyridyl]phenol] is 3.3-fold lower in IC50: 165 µM for the first, 50.1 µM for the second. The second is the more potent here.

`CCc1c(-c2cccc(C(N)=O)c2)cnc(N)c1-c1ccc(O)cc1` [Compound 46, 3-[6-amino-4-ethyl-5-(4-hydroxyphenyl)-3-pyridyl]benzamide] and `CCc1c(-c2cccc(C(=O)N(C)C)c2)cnc(N)c1-c1ccc(O)cc1` [Compound 54, 3-[6-amino-4-ethyl-5-(4-hydroxyphenyl)-3-pyridyl]-N,N-dimethyl-benzamide] are within 1.5-fold of each other in IC50: 114 µM for the first, 161 µM for the second.

`CCc1c(-c2cccc(C(C)C)c2)cnc(N)c1-c1ccc(O)cc1` [Compound 47, 4-[2-amino-4-ethyl-5-(3-isopropylphenyl)-3-pyridyl]phenol] and `CCc1c(-c2ccc(=O)[nH]c2)cnc(N)c1-c1ccc(O)cc1` [Compound 58, 5-[6-amino-4-ethyl-5-(4-hydroxyphenyl)-3-pyridyl]-1H-pyridin-2-one] cannot be ordered by IC50: over 20 µM for the first, 93.3 µM for the second.

First: CCc1c(-c2ccc(O)cc2)cnc(N)c1-c1ccc2[nH]nc(C)c2c1 [Compound 59, 4-[6-amino-4-ethyl-5-(3-methyl-1H-indazol-5-yl)-3-pyridyl]phenol]
Second: CCc1c(-c2ccc(C(=O)N3CCOCC3)cc2)cnc(N)c1-c1ccc(O)cc1 [Compound 60, [4-[6-amino-4-ethyl-5-(4-hydroxyphenyl)-3-pyridyl]phenyl]-morpholino-methanone]
The IC50 of the first is 8.7-fold lower: 19.3 µM for the first, 167 µM for the second. The first is the more potent here.
